# Test results as given in patent US20260217701A1, “SELECTIVE BET INHIBITORS AND USES THEREOF” (Tay Therapeutics Limited, priority 2022, published 2026).
# “And” between values parts separate entries of the source, which are not always exact repeats. Equal values may be shown once. Read-outs that look alike come from different tables or passages of the source.
# Tests used:
# [1] = UUO study: clinical observations; type: in vivo; conditions: UUO rats; 10 mg/kg
# UUO study: body weight = type: in vivo; conditions: UUO rats; for Body Weight: 10 mg/kg QD, 10 mg/kg; for Mean + SD of Body Weight: group 3, group mean
# [2] = Dog PK study #2 (Compound A IV, HPBCD formulation); type: in vivo, beagle dogs
# Experimental: For Dog PK study #2, a solution of Compound A was prepared in HPBCD (20% solution w/v)/DMSO (99/1) with a concentration of 0.5 mg/mL (Table 2B). The Compound A solution was administered to animals intravenously (IV), and animals were monitored over a 24 h period (Table 3C). Body weight was recorded prior to dosing, and detailed clinical observations were made prior to dosing and throughout the study, as needed.
# Blood samples (~0.3 mL) were collected according to a schedule (shown below) by venipuncture of peripheral veins except for the dosing vein, and EDTA-K2 was used as anticoagulant. Within 30 minutes of collection, the samples were centrifuged at approximately 2000 times g-force for 10 minutes at 4° C. to obtain blood plasma. The plasma samples were immediately divided into two aliquots (~75 μL each), transferred to a cryogenic vial, and stored in a freezer at −75+15° C. prior to analysis.
# Blood samples were collected at 0.083, 0.25, 0.5, 1, 2, 4, 8, and 24 h following the initial dosing (0 h).
# The concentration of Compound A in the blood plasma was determined through liquid chromatography-mass spectrometry (LC-MS). The experiments were conducted on a Shimadzu HPLC(DGU-20A5R; LC-30AD; SIL-30AC; Rack Changer II; CTO-30A; and CBM-20A) and AB API 5500 LC/MS/MS instrument with an Agilent Poroshell EC-C18 4 μm (50×2.1 mm) column. A gradient of 95% water (0.1% formic acid)/95% acetonitrile (0.1% formic acid) was used as the mobile phase. The sample injection volume was 4 μL, and the flow rate was 0.6 mL/min. The gathered data were used for pharmacokinetic calculations using T1/2, CO, AUClast, AUCinf, MRTinf, Cl, Vss, and Number of Points for Regression as parameters.
# The desired serial concentrations of working solutions were achieved by diluting stock solution of analyte with 50% acetonitrile in water solution. 5 μL of working solutions (5, 10, 20, 50, 100, 500, 1000, 5000, 10000 ng/ml) were added to 50 µL of the blank Beagle Dogs plasma to achieve calibration standards of 0.5~1000 ng/ml (0.5, 1, 2, 5, 10, 50, 100, 500, 1000 ng/ml) in a total volume of 55 μL. Five quality control samples at 1 ng/ml, 2 ng/mL, 5 ng/ml, 50 ng/mL and 800 ng/mL for plasma were prepared independently of those used for the calibration curves. These QC samples were prepared on the day of analysis in the same way as calibration standards.
# 55 μL standards, 55 μL QC samples and 55 μL unknown samples (50 μL plasma with 5 μL blank solution) were added to 200 μL of acetonitrile containing IS mixture (verapamil) for precipitating protein respectively. Then the samples were vortexed for 30 s. After centrifugation at 4° C., 3900 rpm for 15 min, the supernatant was diluted 3 times with water. 4 μL of diluted supernatant was injected into the LC/MS/MS system for quantitative analysis.
# [3] = IV 1 mg/kg, HPBCD formulation, individual animals, 1 mg/kg
# [4] = IV 1 mg/kg, HPBCD formulation, mean
# [5] = beagle, dog, plasma, iv, 1 mg/kg, IV 1 mg/kg, HPBCD formulation, individual animals, read-out: Plasma concentration
# [6] = beagle, dog, plasma, iv, 1 mg/kg, IV 1 mg/kg, HPBCD formulation, mean, read-out: Average plasma concentration
# [7] = beagle, dog, plasma, iv, 1 mg/kg, IV 1 mg/kg, HPBCD formulation, mean
smiles,measurement,setting,value
"Cn1cc(-c2ccccc2)c(-c2cn(C)c(=O)c3[nH]c(-c4cnn(C(F)(F)F)c4)cc23)cc1=O [Compound A, 6-methyl-4-(1-methyl-2-oxo-5-phenyl-1,2-dihydropyridin-4-yl)-2-(1-(trifluoromethyl)-1H-pyrazol-4-yl)-1,6-dihydro-7H-pyrrolo[2,3-c]pyridin-7-one]",Clinical observations assessed daily,[1],soft stools on just one study day
same,Body Weight,"UUO study: body weight; individual animals 1-8, Day 0",304 g (2×) and 308 g and 291 g and 306 g and 307 g
same,Body Weight,"UUO study: body weight; individual animals 1-8, Day 1",290 g and 296 g and 304 g and 281 g and 279 g and 298 g
same,Body Weight,"UUO study: body weight; individual animals 1-8, Day 2",283 g and 294 g and 297 g and 281 g and 275 g and 290 g
same,Body Weight,"UUO study: body weight; individual animals 1-8, Day 3",286 g and 292 g and 298 g and 280 g and 276 g and 288 g
same,Body Weight,"UUO study: body weight; individual animals 1-8, Day 4",285 g and 288 g and 301 g and 277 g and 275 g and 294 g
same,Body Weight,"UUO study: body weight; individual animals 1-8, Day 5",283 g and 290 g and 300 g and 278 g and 268 g and 285 g
same,Body Weight,"UUO study: body weight; individual animals 1-8, Day 6",283 g and 290 g (2×) and 297 g and 281 g and 266 g and 275 g
same,Body Weight,"UUO study: body weight; individual animals 1-8, Day 7",290 g and 285 g and 303 g and 280 g and 260 g and 299 g and 274 g
same,Body Weight,"UUO study: body weight; individual animals 1-8, Day 8",295 g and 284 g and 304 g and 279 g and 262 g and 303 g and 275 g
same,Body Weight,"UUO study: body weight; individual animals 1-8, Day 9",305 g and 284 g (2×) and 310 g and 279 g and 304 g and 275 g
same,Body Weight,"UUO study: body weight; individual animals 1-8, Day 10",300 g and 284 g and 311 g and 277 g and 270 g and 304 g
same,Body Weight,"UUO study: body weight; individual animals 1-8, Day 11",298 g and 297 g and 311 g and 278 g and 271 g and 315 g
same,Body Weight,"UUO study: body weight; individual animals 1-8, Day 12",295 g and 291 g and 319 g and 283 g and 271 g and 315 g
same,Body Weight,"UUO study: body weight; individual animals 1-8, Day 13",294 g and 293 g and 318 g and 286 g and 270 g and 320 g
same,Body Weight,"UUO study: body weight; individual animals 1-8, Day 14",298 g and 296 g and 322 g and 291 g and 281 g and 331 g
same,Body Weight,"UUO study: body weight; individual animals 1-8, Day −1",284 g and 304 g and 299 g and 289 g and 297 g and 301 g
same,Mean + SD of Body Weight,UUO study: body weight; Day 0,302 ± 6 g
same,Mean + SD of Body Weight,UUO study: body weight; Day 1,288 ± 11 g
same,Mean + SD of Body Weight,UUO study: body weight; Day 2,285 ± 8 g
same,Mean + SD of Body Weight,UUO study: body weight; Day 3,284 ± 9 g
same,Mean + SD of Body Weight,UUO study: body weight; Day 4,283 ± 11 g
same,Mean + SD of Body Weight,UUO study: body weight; Day 5,281 ± 11 g
same,Mean + SD of Body Weight,UUO study: body weight; Day 6,282 ± 10 g
same,Mean + SD of Body Weight,UUO study: body weight; Day 7,284 ± 14 g
same,Mean + SD of Body Weight,UUO study: body weight; Day 8,285 ± 15 g
same,Mean + SD of Body Weight,UUO study: body weight; Day 9,291 ± 13 g
same,Mean + SD of Body Weight,UUO study: body weight; Day 10,289 ± 14 g
same,Mean + SD of Body Weight,UUO study: body weight; Day 11,292 ± 17 g
same,Mean + SD of Body Weight,UUO study: body weight; Day 12,294 ± 17 g
same,Mean + SD of Body Weight,UUO study: body weight; Day 13,296 ± 17 g
same,Mean + SD of Body Weight,UUO study: body weight; Day 14,300 ± 18 g
same,Mean + SD of Body Weight,UUO study: body weight; Day −1,294 ± 7 g
same,Body weight course,"UUO study: body weight; 10 mg/kg daily, 14-day study",slight weight loss over the course of the 14-day study before regaining their original weight
same,"clinical observations, HPBCD vs propylene glycol formulation",[2]; IV,fewer clinical observations
same,AUClast,[2]; [3],4.409 µg·h/mL and 1.577 µg·h/mL and 1.732 µg·h/mL
same,AUClast/D,[2]; [3],4409 (ng · h/mL)/(mg/kg) and 1577 (ng · h/mL)/(mg/kg) and 1732 (ng · h/mL)/(mg/kg)
same,AUClnf,[2]; [3],4.854 µg·h/mL and 1.674 µg·h/mL and 2.083 µg·h/mL
same,AUC—%Extrap—obs,[2]; [3],9.17% and 5.83% and 16.8%
same,C0,[2]; [3],0.476 µg/mL and 0.41 µg/mL
same,CI_obs,[2]; [3],0.206 L/h/kg and 0.597 L/h/kg and 0.48 L/h/kg
same,MRTlnf—obs,[2]; [3],9.30 h and 6.26 h and 11.8 h
same,T1/2,[2]; [3],6.45 h and 10.1 h
same,Vss—obs,[2]; [3],1.91 L/kg and 3.74 L/kg and 5.67 L/kg
same,AUClast/D,[2]; [4],2573 (ng · h/mL)/(mg/kg)
same,AUC—%Extrap—obs,[2]; [4],10.6%
same,CI_obs,[2]; [4],0.428 L/h/kg
same,MRTlnf—obs,[2]; [4],9.1 h
same,concentration at 0.083 h,[2]; [5],0.479 µg/mL
same,concentration at 0.083 h,[2]; [6],0.446 µg/mL
same,concentration at 0.25 h,[2]; [5],0.54 µg/mL
same,concentration at 0.25 h,[2]; [6],0.45 µg/mL
same,concentration at 0.5 h,[2]; [5],0.405 µg/mL
same,concentration at 0.5 h,[2]; [6],0.328 µg/mL
same,concentration at 1 h,[2]; [5],0.331 µg/mL
same,concentration at 1 h,[2]; [6],0.269 µg/mL
same,concentration at 2 h,[2]; [5],0.323 µg/mL
same,concentration at 2 h,[2]; [6],0.232 µg/mL
same,concentration at 4 h,"[2]; beagle, dog, plasma, iv, 1 mg/kg, IV 1 mg/kg, HPBCD formulation, 4 h, mean",0.176 µg/mL
same,concentration at 8 h,"[2]; beagle, dog, plasma, iv, 1 mg/kg, IV 1 mg/kg, HPBCD formulation, 8 h, mean",0.1 µg/mL
same,concentration at 24 h,"[2]; beagle, dog, plasma, iv, 1 mg/kg, IV 1 mg/kg, HPBCD formulation, 24 h, mean",0.026 µg/mL
same,half-life,"[2]; beagle, dog, plasma, iv, 1 mg/kg, IV 1 mg/kg, HPBCD formulation, individual animals",7.11 h
same,C0,"[2]; beagle, dog, plasma, iv, 1 mg/kg, IV 1 mg/kg, HPBCD formulation, individual animals, read-out: C0",0.479 µg/mL
same,AUC,[2]; [7],2.87 µg·h/mL
same,AUC(0-t),[2]; [7],2.57 µg·h/mL
same,half-life,[2]; [7],7.9 h
same,C0,"[2]; beagle, dog, plasma, iv, 1 mg/kg, IV 1 mg/kg, HPBCD formulation, mean, read-out: C0",0.455 µg/mL
same,Vd,"[2]; beagle, dog, plasma, iv, 1 mg/kg, IV 1 mg/kg, HPBCD formulation, mean, read-out: Vss—obs",3.77 L/kg
